Assay results as given in patent US20250368628A1, “METHODS AND COMPOUNDS FOR MODULATING INHERITED GENETIC DISEASES” (Design Therapeutics, Inc., priority 2022, published 2025).

Tested on: Myotonic Dystrophy 1 affected patient fibroblasts (Coriel GM04602; 1600 CTG repeats)
Experiment: DM1 foci reduction assay (EC50 assay; CAG10-Cy3 FISH, foci per nucleus)
Type: cell-based
Conditions: Homo sapiens, Fibroblast; DM1 patient fibroblasts, 48 h treatment, foci per nucleus; read-out: DM1 EC50, 48 h
Protocol: DM1 Foci Reduction Assay Methods
Myotonic Dystrophy 1 affected patient fibroblasts (Coriel GM04602; 1600 CTG repeats) and wild type fibroblasts (Coriell GM07492; control line) were cultured separately in Gibco DMEM (1×)+4.5 g/L D-Glucose+L-Glutamine+[…] Sodium Pyruvate, supplemented with 10% FBS and 1× Pen/Strep. Cells were maintained in an incubator at 37° C. and 5% CO2 with media refreshed every 48-72 hours.
At 90-95% confluency, both cell lines were harvested using Trypl-E then pelleted at 500×g for 5 minutes and were resuspended in fresh media. DM1 fibroblasts were seeded in Agilent 96 well black plates at a density of 5,000 cells/well in 200 μL media; and 8 wells were reserved for control fibroblasts. Plates were returned to incubator for 24 hours at 37° C. and 5% CO2.
Compounds were diluted from 10 mM stock to 1 mM in DMSO and then diluted once more to 6 μM (2× concentration) in media. Media was removed from all plates and cells were replenished with 100 μL media. Cells were treated in 8-point dose response, 1:3 fold dilution, 3 μM top dose via addition of 100 μL of 6 μM (2× concentration) compound to the 100 μL media with cells. Plates were returned to incubator for 48 hours at 37° C. and 5% CO2.
Following treatment, compounds were removed, and plates were washed with PBS, then cells were fixed in 75 μL 4% PFA solution for 20 minutes at room temperature. Plates were washed twice with PBS and twice with cold 70% ethanol before permeabilization with 250 μL cold 70% ethanol for 24-72 hours at −20° C.
After permeabilization, plates were washed once with a 30% formamide and 2×SSC buffer and rehydrated in that buffer for 15 minutes at room temperature. Cells were incubated overnight at 37° C. in 75 μL of a hybridization solution containing 30% formamide, 2×SSC, 25 mg/mL dextran sulfate, 2.5 mg/mL BSA, 0.2 μg/mL Herring sperm DNA, 2 mM vanadyl-ribonucleoside complex, and 5 nM CAG10-Cy3 probe.
Plates were washed once with 30% formamide in 2×SSC buffer, then twice with the buffer for 30 minutes at 37° C., 300 RPM in an incubating plate shaker. Cells were stained with 75 μL of 2.5 μg/mL DAPI in PBS for 5 minutes at room temperature. Plates were then washed twice with PBS and stored in 250 μL PBS. Plates were sealed with adhesive foil and wiped down with 70% ethanol.
Cells were imaged on a Cytation5 with a 20× objective sampling from 4 areas of each well. Nuclei were captured under DAPI channel and foci under RFP channel. Plates were analyzed on an average foci per nucleus per well basis.

Structure (SMILES)	EC50
CCCNC(=O)CCNC(=O)c1nc(NC(=O)c2cc(NC(=O)CCNC(=O)c3nc(NC(=O)CCCNC(=O)c4cc(NC(=O)c5nc(NC(=O)CCNC(=O)c6cc(NC(=O)c7nccn7C)cn6C)cn5C)cn4C)cn3C)cn2CCCCCN(CCOCCOCCOCCOC)CCOCCOCCOCCOC)cn1C [Compound B-157]	> 1000 nM
CCCNC(=O)CCNC(=O)c1nc(NC(=O)c2cc(NC(=O)CCNC(=O)c3nc(NC(=O)CCCNC(=O)c4cc(NC(=O)c5nc(NC(=O)CCNC(=O)c6cc(NC(=O)c7nccn7C)cn6C)cn5C)cn4C)cn3C)cn2CCCCC(=O)N(CCOCCOCCOCCOC)CCOCCOCCOCCOC)cn1C [Compound B-159]	> 1000 nM
COCCOCCOCCOCCN(CCOCCOCCOCCOC)C(=O)CCCCn1cc(NC(=O)CCNC(=O)c2nc(NC(=O)CCCNC(=O)c3cc(NC(=O)c4nc(NC(=O)CCNC(=O)c5cc(NC(=O)c6nccn6C)cn5C)cn4C)cn3C)cn2C)cc1C(=O)Nc1cn(C)c(C(=O)NCCC(=O)N2CCC(N3CCNCC3)CC2)n1 [Compound B-160]	> 1000 nM
COCCOCCOCCOCCN(CCCCCn1cc(NC(=O)c2nc(NC(=O)CCNC(=O)c3cc(NC(=O)c4nccn4C)cn3C)cn2C)cc1C(=O)NCCCC(=O)Nc1cn(C)c(C(=O)NCCC(=O)Nc2cc(C(=O)Nc3cn(C)c(C(=O)NCCC(=O)N4CCC(N5CCNCC5)CC4)n3)n(C)c2)n1)CCOCCOCCOCCOC [Compound B-162]	> 1000 nM
Cn1cc(NC(=O)c2nc(NC(=O)CCNC(=O)c3cc(NC(=O)c4nccn4C)cn3C)cn2C)cc1C(=O)NCCCC(=O)Nc1cn(C)c(C(=O)NCCC(=O)Nc2cc(C(=O)Nc3cn(C)c(C(=O)NCCC(=O)NCCOCCOCCOCCN4CCC(C#CC#CC5CCN(Cc6ccc(C(C)(C)C)cc6)CC5)CC4)n3)n(C)c2)n1 [Compound B-176]	> 1000 nM
Cn1cc(NC(=O)c2nc(NC(=O)CCNC(=O)c3cc(NC(=O)c4nccn4C)cn3C)cn2C)cc1C(=O)NCCCC(=O)Nc1cn(C)c(C(=O)NCCC(=O)Nc2cc(C(=O)Nc3cn(C)c(C(=O)NCCC(=O)NCCCCCN4CCC(C#CC#CC5CCN(Cc6ccc(C(C)(C)C)cc6)CC5)CC4)n3)n(C)c2)n1 [Compound B-178]	> 1000 nM
Cn1cc(NC(=O)c2nc(NC(=O)CCNC(=O)c3cc(NC(=O)c4nccn4C)cn3C)cn2C)cc1C(=O)NCCCC(=O)Nc1cn(C)c(C(=O)NCCC(=O)Nc2cc(C(=O)Nc3cn(C)c(C(=O)NCCC(=O)Nc4ccc(C(C)(C)C)cc4)n3)n(C)c2)n1 [Compound B-180]	> 1000 nM
Cn1cc(NC(=O)c2nc(NC(=O)CCNC(=O)c3cc(NC(=O)c4nccn4C)cn3C)cn2C)cc1C(=O)NCCCC(=O)Nc1cn(C)c(C(=O)NCCC(=O)Nc2cc(C(=O)Nc3cn(C)c(C(=O)NCCC(=O)NCCNc4ccc(C(C)(C)C)cc4)n3)n(C)c2)n1 [Compound B-181]	> 1000 nM
CCCCCC(=O)N1CCC(C#CC#CC2CCN(CCCCCNC(=O)CCNC(=O)c3nc(NC(=O)c4cc(NC(=O)CCNC(=O)c5nc(NC(=O)CCCNC(=O)c6cc(NC(=O)c7nc(NC(=O)CCNC(=O)c8cc(NC(=O)c9nccn9C)cn8C)cn7C)cn6C)cn5C)cn4C)cn3C)CC2)CC1 [Compound B-182]	500 to 1000 nM
CCCCCCN1CCC(C#CC#CC2CCN(CCCCCNC(=O)CCNC(=O)c3nc(NC(=O)c4cc(NC(=O)CCNC(=O)c5nc(NC(=O)CCCNC(=O)c6cc(NC(=O)c7nc(NC(=O)CCNC(=O)c8cc(NC(=O)c9nccn9C)cn8C)cn7C)cn6C)cn5C)cn4C)cn3C)CC2)CC1 [Compound B-183]	> 1000 nM
CC(C)CCC(=O)N1CCC(C#CC#CC2CCN(CCCCCNC(=O)CCNC(=O)c3nc(NC(=O)c4cc(NC(=O)CCNC(=O)c5nc(NC(=O)CCCNC(=O)c6cc(NC(=O)c7nc(NC(=O)CCNC(=O)c8cc(NC(=O)c9nccn9C)cn8C)cn7C)cn6C)cn5C)cn4C)cn3C)CC2)CC1 [Compound B-184]	> 1000 nM
Cn1cc(NC(=O)c2nc(NC(=O)CCNC(=O)c3cc(NC(=O)c4nccn4C)cn3C)cn2C)cc1C(=O)NCCCC(=O)Nc1cn(C)c(C(=O)NCCC(=O)Nc2cc(C(=O)Nc3cn(C)c(C(=O)NCCC(=O)NCC#CC#CC4CCN(C(=O)c5ccc(C(C)(C)C)cc5)CC4)n3)n(C)c2)n1 [Compound B-188]	> 1000 nM
Cn1cc(NC(=O)c2nc(NC(=O)CCNC(=O)c3cc(NC(=O)c4nccn4C)cn3C)cn2C)cc1C(=O)NCCCC(=O)Nc1cn(C)c(C(=O)NCCC(=O)Nc2cc(C(=O)Nc3cn(C)c(C(=O)NCCC(=O)NCC#CC#CC4CCN(Cc5ccc(C(C)(C)C)cc5)CC4)n3)n(C)c2)n1 [Compound B-189]	> 1000 nM
CC(C)CCC(=O)N1CCC(C#CC#CCNC(=O)CCNC(=O)c2nc(NC(=O)c3cc(NC(=O)CCNC(=O)c4nc(NC(=O)CCCNC(=O)c5cc(NC(=O)c6nc(NC(=O)CCNC(=O)c7cc(NC(=O)c8nccn8C)cn7C)cn6C)cn5C)cn4C)cn3C)cn2C)CC1 [Compound B-190]	> 1000 nM
CC(C)CCCN1CCC(C#CC#CCNC(=O)CCNC(=O)c2nc(NC(=O)c3cc(NC(=O)CCNC(=O)c4nc(NC(=O)CCCNC(=O)c5cc(NC(=O)c6nc(NC(=O)CCNC(=O)c7cc(NC(=O)c8nccn8C)cn7C)cn6C)cn5C)cn4C)cn3C)cn2C)CC1 [Compound B-191]	100 to 500 nM
Cn1cc(NC(=O)c2nc(NC(=O)CCNC(=O)c3cc(NC(=O)c4nccn4C)cn3C)cn2C)cc1C(=O)NCCCC(=O)Nc1cn(C)c(C(=O)NCCC(=O)Nc2cc(C(=O)Nc3cn(C)c(C(=O)NCCC(=O)NCC#CC#CC4CCN(C(=O)OC(C)(C)C)CC4)n3)n(C)c2)n1 [Compound B-194]	> 1000 nM
Cn1cc(NC(=O)c2nc(NC(=O)CCNC(=O)c3cc(NC(=O)c4nccn4C)cn3C)cn2C)cc1C(=O)NCCCC(=O)Nc1cn(C)c(C(=O)NCCC(=O)Nc2cc(C(=O)Nc3cn(C)c(C(=O)NCCC(=O)N4CCC(O)(C#CC5CCN(C(=O)OC(C)(C)C)CC5)CC4)n3)n(C)c2)n1 [Compound B-195]	> 1000 nM
Cn1cc(NC(=O)c2nc(NC(=O)CCNC(=O)c3cc(NC(=O)c4nccn4C)cn3C)cn2C)cc1C(=O)NCCCC(=O)Nc1cn(C)c(C(=O)NCCC(=O)Nc2cc(C(=O)Nc3cn(C)c(C(=O)NCCC(=O)N4CCC(O)(C#CC5CCNCC5)CC4)n3)n(C)c2)n1 [Compound B-196]	> 1000 nM
Cn1cc(NC(=O)c2nc(NC(=O)CCNC(=O)c3cc(NC(=O)c4nccn4C)cn3C)cn2C)cc1C(=O)NCCCC(=O)Nc1cn(C)c(C(=O)NCCC(=O)Nc2cc(C(=O)Nc3cn(C)c(C(=O)NCCC(=O)N4CCC(C#CC5(O)CCN(C(=O)OCC6c7ccccc7-c7ccccc76)CC5)CC4)n3)n(C)c2)n1 [Compound B-197]	500 to 1000 nM
Cn1cc(NC(=O)c2nc(NC(=O)CCNC(=O)c3cc(NC(=O)c4nccn4C)cn3C)cn2C)cc1C(=O)NCCCC(=O)Nc1cn(C)c(C(=O)NCCC(=O)Nc2cc(C(=O)Nc3cn(C)c(C(=O)NCCC(=O)N4CCC(C#CC5(O)CCNCC5)CC4)n3)n(C)c2)n1 [Compound B-198]	500 to 1000 nM
Cn1cc(NC(=O)c2nc(NC(=O)CCNC(=O)c3cc(NC(=O)c4nccn4C)cn3C)cn2C)cc1C(=O)NCCCC(=O)Nc1cn(C)c(C(=O)NCCC(=O)Nc2cc(C(=O)Nc3cn(C)c(C(=O)NCCOCCOCCOCCN4CCC(C#CC#CC5CCN(C(=O)OC(C)(C)C)CC5)CC4)n3)n(C)c2)n1 [Compound B-199]	100 to 500 nM
Cn1cc(NC(=O)c2nc(NC(=O)CCNC(=O)c3cc(NC(=O)c4nccn4C)cn3C)cn2C)cc1C(=O)NCCCC(=O)Nc1cn(C)c(C(=O)NCCC(=O)Nc2cc(C(=O)Nc3cn(C)c(C(=O)N4CC(c5cnc(CNC(=O)OCc6ccccc6)[nH]5)C4)n3)n(C)c2)n1 [Compound B-201]	> 1000 nM
COCCOCCOCCOCCOCCOCCNC(=O)c1nc(NC(=O)c2cc(NC(=O)CCNC(=O)c3nc(NC(=O)CCCNC(=O)c4cc(NC(=O)c5nc(NC(=O)CCNC(=O)c6cc(NC(=O)c7nccn7C)cn6C)cn5C)cn4C)cn3C)cn2C)cn1C [Compound B-204]	500 to 1000 nM
Cn1cc(NC(=O)c2nc(NC(=O)CCNC(=O)c3cc(NC(=O)c4nccn4C)cn3C)cn2C)cc1C(=O)NCCCC(=O)Nc1cn(C)c(C(=O)NCCC(=O)Nc2cc(C(=O)NCCOCCOCCOCCN3CCC(C#CC#CC4CCN(C(=O)OC(C)(C)C)CC4)CC3)n(C)c2)n1 [Compound B-210]	> 1000 nM
CN(C)CCCNC(=O)c1cc(NC(=O)CCNC(=O)c2nc(NC(=O)CCCNC(=O)c3cc(NC(=O)c4nc(NC(=O)CCNC(=O)c5cc(NC(=O)c6nccn6C)cn5C)cn4C)cn3C)cn2C)cn1C [Compound B-212]	> 1000 nM
Cn1cc(NC(=O)c2nc(NC(=O)CCNC(=O)c3cc(NC(=O)c4nccn4C)cn3C)cn2C)cc1C(=O)NCCCC(=O)Nc1cn(C)c(C(=O)NCCC(=O)Nc2cc(C(=O)Nc3cn(C)c(C(=O)NCCCCCCCNC(=O)c4cccc(C(=O)O)c4)n3)n(C)c2)n1 [Compound B-213]	> 1000 nM
